system: HL-60; experiment: area under dose-response curve (viability, 1 nM-10 uM) (fraction (0-1)); higher = more sensitive; settings: 72 h; co-treatment: DMSO vehicle
Method in brief: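 HL-60 cells grown in RPMI 1640 with 10% FBS were rescreened against the full library in 384-well plates, in duplicate, at five tenfold concentrations from 1 to 10,000 nM, alongside DMSO or 100 nM of one of three metabolic inhibitors for 72 h at 37 °C, 5% CO2. Reference wells contained DMSO or 10 μM proteasome inhibitor. Viability was read with CellTiter-Glo and normalised to these reference wells, and where reported, area under the curve was taken from four-parameter log-logistic fits in drc and PharmacoGx.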

Row | SMILES | area under dose-response curve
1 | CNC(=C[N+](=O)[O-])NCCSCc1ccc(CN(C)C)o1 [Ranitidine] | < 0.0301
2 | C#CCN[C@@H]1CCc2ccccc21 [Rasagiline] | < 0.0301
3 | NC(CCC(=O)NC(CSCc1ccc(Br)cc1)C(=O)NCC(=O)OC1CCCC1)C(=O)OC1CCCC1 (stereo not given) [S-para-Bromobenzylglutathione cyclopentyl diester] | < 0.0301
4 | COc1cc(C2Oc3cc(C4Oc5cc(O)cc(O)c5C(=O)C4O)ccc3OC2CO)ccc1O (stereo not given) [Silibinin] | < 0.0301
5 | Fc1ccc(CNc2ncnc3ccc(F)cc23)cc1 [Spautin 1] | 0.0409
6 | Cn1c2cc(S(C)=O)sc2c2cnn(Cc3cccc(N)c3)c(=O)c21 (stereo not given) [TEPP-46] | < 0.0301
7 | CCCCCCCCCCCCCCOc1ccc(C(=O)O)o1 [TOFA] | < 0.0301
8 | CN1CC(=O)N2[C@H](c3ccc4c(c3)OCO4)c3[nH]c4ccccc4c3C[C@@H]2C1=O [Tadalafil] | < 0.0301

same assay, conditions: 72 h; co-treatment: GSK2194069 100 nM

Row | SMILES | area under dose-response curve
9 | CC(C)(F)C[C@H](N[C@@H](c1ccc(-c2ccc(S(C)(=O)=O)cc2)cc1)C(F)(F)F)C(=O)NC1(C#N)CC1 [Odanacatib] | < 0.0301
10 | Nc1nc(O)c2c(CCc3ccc(C(=O)N[C@@H](CCC(=O)O)C(=O)O)cc3)c[nH]c2n1 [Pemetrexed] | 0.236
11 | C=C1NC(=O)c2cc(CN(C)c3ccc(C(=O)N[C@@H](CCC(=O)O)C(=O)O)s3)ccc2N1 [Raltitrexed] | 0.42
12 | CNC(=C[N+](=O)[O-])NCCSCc1ccc(CN(C)C)o1 [Ranitidine] | < 0.0301
13 | C#CCN[C@@H]1CCc2ccccc21 [Rasagiline] | < 0.0301
14 | NC(CCC(=O)NC(CSCc1ccc(Br)cc1)C(=O)NCC(=O)OC1CCCC1)C(=O)OC1CCCC1 (stereo not given) [S-para-Bromobenzylglutathione cyclopentyl diester] | < 0.0301
15 | COc1cc(C2Oc3cc(C4Oc5cc(O)cc(O)c5C(=O)C4O)ccc3OC2CO)ccc1O (stereo not given) [Silibinin] | < 0.0301
16 | Fc1ccc(CNc2ncnc3ccc(F)cc23)cc1 [Spautin 1] | 0.0623
17 | Cn1c2cc(S(C)=O)sc2c2cnn(Cc3cccc(N)c3)c(=O)c21 (stereo not given) [TEPP-46] | < 0.0301
18 | CCCCCCCCCCCCCCOc1ccc(C(=O)O)o1 [TOFA] | < 0.0301
19 | CN1CC(=O)N2[C@H](c3ccc4c(c3)OCO4)c3[nH]c4ccccc4c3C[C@@H]2C1=O [Tadalafil] | < 0.0301

same assay, conditions: 72 h; co-treatment: pictilisib 100 nM

Row | SMILES | area under dose-response curve
20 | CC(C)(F)C[C@H](N[C@@H](c1ccc(-c2ccc(S(C)(=O)=O)cc2)cc1)C(F)(F)F)C(=O)NC1(C#N)CC1 [Odanacatib] | < 0.0301
21 | Nc1nc(O)c2c(CCc3ccc(C(=O)N[C@@H](CCC(=O)O)C(=O)O)cc3)c[nH]c2n1 [Pemetrexed] | 0.223
22 | C=C1NC(=O)c2cc(CN(C)c3ccc(C(=O)N[C@@H](CCC(=O)O)C(=O)O)s3)ccc2N1 [Raltitrexed] | 0.432
23 | CNC(=C[N+](=O)[O-])NCCSCc1ccc(CN(C)C)o1 [Ranitidine] | < 0.0301
24 | C#CCN[C@@H]1CCc2ccccc21 [Rasagiline] | < 0.0301
25 | NC(CCC(=O)NC(CSCc1ccc(Br)cc1)C(=O)NCC(=O)OC1CCCC1)C(=O)OC1CCCC1 (stereo not given) [S-para-Bromobenzylglutathione cyclopentyl diester] | 0.0772
26 | COc1cc(C2Oc3cc(C4Oc5cc(O)cc(O)c5C(=O)C4O)ccc3OC2CO)ccc1O (stereo not given) [Silibinin] | < 0.0301
27 | Fc1ccc(CNc2ncnc3ccc(F)cc23)cc1 [Spautin 1] | 0.0324
28 | Cn1c2cc(S(C)=O)sc2c2cnn(Cc3cccc(N)c3)c(=O)c21 (stereo not given) [TEPP-46] | < 0.0301
29 | CCCCCCCCCCCCCCOc1ccc(C(=O)O)o1 [TOFA] | 0.114
30 | CN1CC(=O)N2[C@H](c3ccc4c(c3)OCO4)c3[nH]c4ccccc4c3C[C@@H]2C1=O [Tadalafil] | < 0.0301

system: MOLM-13; experiment: not given; settings: 72 h
Method in brief: (§1)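 The IC50 was derived from log-logistic dose–response fitting. Each of fifteen myeloid leukaemia cell lines, seeded in RPMI 1640 within its linear growth range, was exposed in 384-well plates to five tenfold doses (1 to 10,000 nM) in duplicate for 72 h at 37 °C and 5% CO2. Luminescent ATP viability readings were normalised to vehicle and to a positive control at 10 µM before four-parameter curve fitting.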

Row | SMILES | IC50 (cell viability)
31 | CC(C)(F)C[C@H](N[C@@H](c1ccc(-c2ccc(S(C)(=O)=O)cc2)cc1)C(F)(F)F)C(=O)NC1(C#N)CC1 [Odanacatib] | > 10 µM
32 | Nc1nc(O)c2c(CCc3ccc(C(=O)N[C@@H](CCC(=O)O)C(=O)O)cc3)c[nH]c2n1 [Pemetrexed] | 0.305 µM
33 | C=C1NC(=O)c2cc(CN(C)c3ccc(C(=O)N[C@@H](CCC(=O)O)C(=O)O)s3)ccc2N1 [Raltitrexed] | 0.0479 µM
34 | CNC(=C[N+](=O)[O-])NCCSCc1ccc(CN(C)C)o1 [Ranitidine] | > 10 µM
35 | C#CCN[C@@H]1CCc2ccccc21 [Rasagiline] | > 10 µM
36 | NC(CCC(=O)NC(CSCc1ccc(Br)cc1)C(=O)NCC(=O)OC1CCCC1)C(=O)OC1CCCC1 (stereo not given) [S-para-Bromobenzylglutathione cyclopentyl diester] | > 10 µM
37 | COc1cc(C2Oc3cc(C4Oc5cc(O)cc(O)c5C(=O)C4O)ccc3OC2CO)ccc1O (stereo not given) [Silibinin] | > 10 µM
38 | Fc1ccc(CNc2ncnc3ccc(F)cc23)cc1 [Spautin 1] | > 10 µM
39 | Cn1c2cc(S(C)=O)sc2c2cnn(Cc3cccc(N)c3)c(=O)c21 (stereo not given) [TEPP-46] | > 10 µM
40 | CCCCCCCCCCCCCCOc1ccc(C(=O)O)o1 [TOFA] | > 10 µM
41 | CN1CC(=O)N2[C@H](c3ccc4c(c3)OCO4)c3[nH]c4ccccc4c3C[C@@H]2C1=O [Tadalafil] | > 10 µM

system: K-562; experiment: not given; settings: 72 h
Method in brief: as §1

Row | SMILES | IC50 (cell viability)
42 | CC(C)(F)C[C@H](N[C@@H](c1ccc(-c2ccc(S(C)(=O)=O)cc2)cc1)C(F)(F)F)C(=O)NC1(C#N)CC1 [Odanacatib] | > 10 µM
43 | Nc1nc(O)c2c(CCc3ccc(C(=O)N[C@@H](CCC(=O)O)C(=O)O)cc3)c[nH]c2n1 [Pemetrexed] | 1.66 µM
44 | C=C1NC(=O)c2cc(CN(C)c3ccc(C(=O)N[C@@H](CCC(=O)O)C(=O)O)s3)ccc2N1 [Raltitrexed] | 0.201 µM
45 | CNC(=C[N+](=O)[O-])NCCSCc1ccc(CN(C)C)o1 [Ranitidine] | > 10 µM
46 | C#CCN[C@@H]1CCc2ccccc21 [Rasagiline] | > 10 µM
47 | NC(CCC(=O)NC(CSCc1ccc(Br)cc1)C(=O)NCC(=O)OC1CCCC1)C(=O)OC1CCCC1 (stereo not given) [S-para-Bromobenzylglutathione cyclopentyl diester] | > 10 µM
48 | COc1cc(C2Oc3cc(C4Oc5cc(O)cc(O)c5C(=O)C4O)ccc3OC2CO)ccc1O (stereo not given) [Silibinin] | > 10 µM
49 | Fc1ccc(CNc2ncnc3ccc(F)cc23)cc1 [Spautin 1] | 1.34 µM
50 | Cn1c2cc(S(C)=O)sc2c2cnn(Cc3cccc(N)c3)c(=O)c21 (stereo not given) [TEPP-46] | > 10 µM
51 | CCCCCCCCCCCCCCOc1ccc(C(=O)O)o1 [TOFA] | > 10 µM
52 | CN1CC(=O)N2[C@H](c3ccc4c(c3)OCO4)c3[nH]c4ccccc4c3C[C@@H]2C1=O [Tadalafil] | > 10 µM

system: LAMA-84; experiment: not given; settings: 72 h
Method in brief: as §1

Row | SMILES | IC50 (cell viability)
53 | CC(C)(F)C[C@H](N[C@@H](c1ccc(-c2ccc(S(C)(=O)=O)cc2)cc1)C(F)(F)F)C(=O)NC1(C#N)CC1 [Odanacatib] | > 10 µM
54 | Nc1nc(O)c2c(CCc3ccc(C(=O)N[C@@H](CCC(=O)O)C(=O)O)cc3)c[nH]c2n1 [Pemetrexed] | 0.0585 µM
55 | C=C1NC(=O)c2cc(CN(C)c3ccc(C(=O)N[C@@H](CCC(=O)O)C(=O)O)s3)ccc2N1 [Raltitrexed] | 0.0428 µM
56 | CNC(=C[N+](=O)[O-])NCCSCc1ccc(CN(C)C)o1 [Ranitidine] | > 10 µM
57 | C#CCN[C@@H]1CCc2ccccc21 [Rasagiline] | > 10 µM
58 | NC(CCC(=O)NC(CSCc1ccc(Br)cc1)C(=O)NCC(=O)OC1CCCC1)C(=O)OC1CCCC1 (stereo not given) [S-para-Bromobenzylglutathione cyclopentyl diester] | > 10 µM
59 | COc1cc(C2Oc3cc(C4Oc5cc(O)cc(O)c5C(=O)C4O)ccc3OC2CO)ccc1O (stereo not given) [Silibinin] | > 10 µM
60 | Fc1ccc(CNc2ncnc3ccc(F)cc23)cc1 [Spautin 1] | 1.49 µM
61 | Cn1c2cc(S(C)=O)sc2c2cnn(Cc3cccc(N)c3)c(=O)c21 (stereo not given) [TEPP-46] | > 10 µM
62 | CCCCCCCCCCCCCCOc1ccc(C(=O)O)o1 [TOFA] | > 10 µM
63 | CN1CC(=O)N2[C@H](c3ccc4c(c3)OCO4)c3[nH]c4ccccc4c3C[C@@H]2C1=O [Tadalafil] | > 10 µM

system: KCL-22; experiment: not given; settings: 72 h
Method in brief: as §1

Row | SMILES | IC50 (cell viability)
64 | CC(C)(F)C[C@H](N[C@@H](c1ccc(-c2ccc(S(C)(=O)=O)cc2)cc1)C(F)(F)F)C(=O)NC1(C#N)CC1 [Odanacatib] | > 10 µM
65 | Nc1nc(O)c2c(CCc3ccc(C(=O)N[C@@H](CCC(=O)O)C(=O)O)cc3)c[nH]c2n1 [Pemetrexed] | 0.279 µM

From the supplement of paper PMC8671470
